Laboratory results reported in ChEMBL document CHEMBL1201862, “PubChem BioAssay data set” (2004).
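1) Cells in 96-well plates. 2) Compound, 48 h, 5 concentrations. 3) Linear interpolation between surrounding doses. 4) Unreached endpoint = highest concentration. GI50 = concentration required for 50% inhibition of growth.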 Calls of active or inactive are those of the source. Rule as the data show it: active = GI50 up to about 1.1 µM and inactive = higher.

Key:
Assay in all cases: inhibition of tumour cell growth, NCI panel, 48 h
SK-MEL-2 = tested on: SK-MEL-2
SK-MEL-5 = tested on: SK-MEL-5
SF-539 = tested on: SF-539
UACC-257 = tested on: UACC-257
HCT-116 = tested on: HCT-116
NCI-H23 = tested on: NCI-H23
A549 = tested on: A549
COLO 205 = tested on: COLO 205
KM12 = tested on: KM12
XF498 = tested on: XF498
SW-620 = tested on: SW-620
U-251 = tested on: U-251
NCI-H522 = tested on: NCI-H522
NCI/ADR-RES = tested on: NCI/ADR-RES
UACC-62 = tested on: UACC-62
SN12C = tested on: SN12C
DMS-114 = tested on: DMS-114
OVCAR-5 = tested on: OVCAR-5
NCI-H226 = tested on: NCI-H226
MOLT-4 = tested on: MOLT-4

Row | Structure (SMILES) | GI50 (SK-MEL-2) | GI50 (SK-MEL-5) | GI50 (SF-539) | GI50 (UACC-257) | GI50 (HCT-116) | GI50 (NCI-H23) | GI50 (A549) | GI50 (COLO 205) | GI50 (KM12) | GI50 (XF498) | GI50 (SW-620) | GI50 (U-251) | GI50 (NCI-H522) | GI50 (NCI/ADR-RES) | GI50 (UACC-62) | GI50 (SN12C) | GI50 (DMS-114) | GI50 (OVCAR-5) | GI50 (NCI-H226) | GI50 (MOLT-4)
1 | Cc1c2cc[n+](Cc3ccc(I)cc3)cc2c(C)c2c1[nH]c1ccccc12 | 0.614 µM (active) | 0.49 µM (active) | 1.74 µM (inactive) | 0.646 µM (active) | 0.574 µM (active) | 0.65 µM (active) | 0.849 µM (active) | 0.61 µM (active) | 0.402 µM (active) | 0.433 µM (active) | 0.912 µM (active) | 0.21 µM (active) | 0.692 µM (active) | > 25 µM (inactive) | 1.12 µM (active) | 0.548 µM (active) | 0.605 µM (active) | 1.37 µM (inactive) | 0.552 µM (active) | 0.574 µM (active)
2 | CC(C)C1NC(=O)CC(c2ccccc2)N(N=O)C1c1ccccc1 (stereo not given) | > 100 µM (inactive) | > 83.6 µM (inactive) | > 100 µM (inactive) | > 100 µM (inactive) | > 100 µM (inactive) | > 80.9 µM (inactive) | > 100 µM (inactive) | > 100 µM (inactive) | > 100 µM (inactive) | 37.8 µM (inactive) | > 100 µM (inactive) | > 100 µM (inactive) | 37.5 µM (inactive) | > 100 µM (inactive) | > 100 µM (inactive) | > 100 µM (inactive) | > 95.7 µM (inactive) | > 100 µM (inactive) | > 100 µM (inactive) | > 100 µM (inactive)
